# From patent US20230277464A1, “TABLET DOSAGE FORMS FOR LIPID-BASED DRUG DELIVERY SYSTEMS” (ABITEC Corporation, priority 2022, published 2023)
# Assay: Visual dissolution of ibuprofen in SEDDS pre-concentrate
# Assay type: physicochemical
# Method: The medium chain fatty acid esters and oil were weighed into a 2000 mL glass beaker. Subsequently, a magnetic stirrer was added to the beaker. The medium chain fatty acid esters and oil were blended to uniformity for 5 minutes with the magnetic stirrer set at 5. […] […] The pre-concentrate was observed 24 hours later to ensure that the ibuprofen was still dissolved.
smiles,measurement,setting,value
"CC(C)Cc1ccc(C(C)C(=O)O)cc1 (centres unmarked) [Ibuprofen, ibuprofen]",Time ibuprofen remained dissolved in the pre-concentrate,room temperature,at least 24 hours
same,Ibuprofen dissolved in the pre-concentrate components,with heating,about 15.0%
